Legend:
NLRP3 [1] = target: T1, NLRP3 (Homo sapiens, UniProt Q96P20); assay: THP-1 cells pyroptosis assay; type: cell-based; design: Seed THP-1 cells (25,000 cells/well) containing 1.0 μg/ml LPS; host or cells: THP-1 cells, LPS-primed, nigericin-stimulated; details: LPS 1.0 μg/ml, nigericin 5 μM, resazurin readout
Description: It is well established that the activation of NLRP3 leads to cell pyroptosis and this feature plays an important part in the manifestation of clinical disease (Yan-gang Liu et al., Cell Death & Disease, 2017, 8(2), e2579; Alexander Wree et al., Hepatology, 2014, 59(3), 898-910; Alex Baldwin et al., Journal of Medicinal Chemistry, 2016, 59(5), 1691-1710; Ema Ozaki et al., Journal of Inflammation Research, 2015, 8, 15-27; Zhen Xie & Gang Zhao, Neuroimmunology Neuroinflammation, 2014, 1(2), 60-65; Mattia Cocco et al., Journal of Medicinal Chemistry, 2014, 57(24), 10366-10382; T. Satoh et al., Cell Death & Disease, 2013, 4, e644). Therefore, it is anticipated that inhibitors of NLRP3 will block pyroptosis, as well as the release of pro-inflammatory cytokines (e.g. […]) from the cell.
THP-1 cells (ATCC #TIB-202) were grown in RPMI containing L-glutamine (Gibco #11835) supplemented with 1 mM sodium pyruvate (Sigma #S8636) and penicillin (100 units/ml)/streptomycin (0.1 mg/ml) (Sigma #P4333) in 10% Fetal Bovine Serum (FBS) (Sigma #F0804). The cells were routinely passaged and grown to confluency (˜10^6 cells/ml). On the day of the experiment, THP-1 cells were harvested and resuspended into RPMI medium (without FBS). The cells were then counted and viability (>90%) checked by Trypan blue (Sigma #T8154). Appropriate dilutions were made to give a concentration of 625,000 cells/ml. To this diluted cell solution was added LPS (Sigma #L4524) to give a […] Final Assay Concentration (FAC). 40 μl of the final preparation was aliquoted into each well of a 96-well plate. The plate thus prepared was used for compound screening.
The following method step-by-step assay was followed for compound screening.
Seed THP-1 cells (25,000 cells/well) containing 1.0 μg/ml LPS in 40 μl of RPMI medium (without FBS) in 96-well, black walled, clear bottom cell culture plates coated with poly-D-lysine (VWR #734-0317)
Add 5 μl compound (8 points half-log dilution, with 10 μM top dose) or vehicle (DMSO 0.1% FAC) to the appropriate wells
(§1) Incubate for 3 hours at 37° C., 5% CO2
Add 5 μl nigericin (Sigma #N7143) (FAC 5 μM) to all wells
(§2) Incubate for 1 hr at 37° C., 5% CO2
At the end of the incubation period, spin plates at 300 xg for 3 mins and remove supernatant
Then add 50 μl of resazurin (Sigma #R7017) (FAC 100 μM resazurin in RPMI medium without FBS) and incubate plates for a further 1-2 hours at 37° C. and 5% CO2
Plates were read in an Envision reader at Ex 560 nm and Em 590 nm
(§3) IC50 data is fitted to a non-linear regression equation (log inhibitor vs response-variable slope 4-parameters)

[2] = target: T2, hERG cardiac potassium channel (Homo sapiens, UniProt Q12809); assay: hERG screening assay (automated patch clamp, CHO-hERG cells); type: cell-based; details: CHO crelox hERG cells (CHO cells that express hERG), whole-cell patch clamp, 35-37° C.
T2 construct: Evotec (cryopreserved) ATCC PTA-6812; host or cells: CHO crelox hERG cell line (Chinese hamster)
Description: In the drug development process of small molecules, one of the most frequent adverse side effects, leading to the failure of drugs, is the cardiac arrhythmias. Such failure is often related to the capacity of the drug to inhibit the human ether-à-go-go-related gene (hERG) cardiac potassium channel. Having no or low inhibition of the hERG cardiac potassium channel is therefore considered as beneficial.
The CHO crelox hERG cell line (ATCC reference Nr. PTA-6812, female Chinese hamster cells) was generated and validated at Roche. Ready-to-use frozen instant CHO-hERG cells were cryopreserved at Evotec (Germany) and used directly in the experiments.
The extracellular solution contains (in mM): NaCl 150; KCl 4; CaCl2 1; MgCl2 1; HEPES 10; pH 7.2-7.4 with NaOH, osmolarity 290-330 mOsm. The internal solution contains (in mM): KCl, 10; KF, 100; NaCl, 10; HEPES, 10; EGTA, 20; pH=7.0-7.4 with KOH, osmolarity 260-300 mOsm.
The effects of a compound on hERG K+-currents parameters will be evaluated at 2 concentrations in at least 4 cells.
The hERG test is performed using automated patch clamp system SynchroPatch® 384 (Nanion Technologies GmbH, Germany). K+ currents are measured with the patch-voltage-clamp technique in the whole-cell configuration at 35-37° C.
The amplitudes of IKhERG were recorded in each concentration of drug and they were compared to the vehicle control values (taken as 100%) to define fractional blocks. The concentration-response data were fitted with the following relationship:
Concentration-response curves were fitted by non-linear regression analysis using EworkBook suite (ID Business Solutions Ltd, UK). Data fit was done with the 4 Parameter Logistic Model (fit=(A+(B/(1+((x/C)^D)))), where A=0 and B=100).

NLRP3 [3] = target: T1, NLRP3; assay: Human whole blood IL-1β release assay; type: cell-based; design: Human whole blood in Li-heparin tubes was obtained from healthy donors; from tissue; host or cells: human whole blood from healthy donors; details: LPS, nigericin 10 μM, IL-1β by AlphaLisa
Experimental: For systemic delivery, the ability to inhibit NLRP3 when the compounds are present within the bloodstream is of great importance. For this reason, the NLRP3 inhibitory activity of a number of compounds in human whole blood was investigated in accordance with the following protocol.
Human whole blood in Li-heparin tubes was obtained from healthy donors from a volunteer donor panel.
Plate out 80 μl of whole blood containing […] of LPS in 96-well, clear bottom cell culture plate (Corning #3585)
Add 10 μl compound (8 points half-log dilution with 10 μM top dose) or vehicle (DMSO 0.1% FAC) to the appropriate wells
as §1
Add 10 μl nigericin (Sigma #N7143) (10 μM FAC) to all wells
as §2
At the end of the incubation period, spin plates at 300 xg for 5 mins to pellet cells and remove 20 μl of supernatant and add to 96-well v-bottom plates for IL-1β analysis (note: these plates containing the supernatants can be stored at −80° C. to be analysed at a later date)
IL-1β was measured according to the manufacturer protocol (Perkin Elmer-AlphaLisa IL-1 Kit AL220F-5000)
as §3

human P-gp = target: T3, human P-gp (Homo sapiens, UniProt P08183); assay: Transcellular human P-gp assay (transfected LLC-PK1 cells); type: in vitro ADME; details: LLC-PK1 cells over-expressing human P-gp
T3 construct: expressed in transfected cells; host or cells: LLC-PK1 (porcine kidney epithelial cells)
Description: The general assay uses transfected LLC-PK1 cells (porcine kidney epithelial cells) over-expressing human or mouse P-gp, cultured on 96 well semi-permeable filter membrane plates, where they form a polarized monolayer with tight junctions, and act as a barrier between the apical and basolateral compartment.
P-gp is expressed in the apical-facing membrane of the monolayer. […] J. Pharmacol. Exp Ther., 2021, 376, 322-329.

T1 sequence (Q96P20 whole entry): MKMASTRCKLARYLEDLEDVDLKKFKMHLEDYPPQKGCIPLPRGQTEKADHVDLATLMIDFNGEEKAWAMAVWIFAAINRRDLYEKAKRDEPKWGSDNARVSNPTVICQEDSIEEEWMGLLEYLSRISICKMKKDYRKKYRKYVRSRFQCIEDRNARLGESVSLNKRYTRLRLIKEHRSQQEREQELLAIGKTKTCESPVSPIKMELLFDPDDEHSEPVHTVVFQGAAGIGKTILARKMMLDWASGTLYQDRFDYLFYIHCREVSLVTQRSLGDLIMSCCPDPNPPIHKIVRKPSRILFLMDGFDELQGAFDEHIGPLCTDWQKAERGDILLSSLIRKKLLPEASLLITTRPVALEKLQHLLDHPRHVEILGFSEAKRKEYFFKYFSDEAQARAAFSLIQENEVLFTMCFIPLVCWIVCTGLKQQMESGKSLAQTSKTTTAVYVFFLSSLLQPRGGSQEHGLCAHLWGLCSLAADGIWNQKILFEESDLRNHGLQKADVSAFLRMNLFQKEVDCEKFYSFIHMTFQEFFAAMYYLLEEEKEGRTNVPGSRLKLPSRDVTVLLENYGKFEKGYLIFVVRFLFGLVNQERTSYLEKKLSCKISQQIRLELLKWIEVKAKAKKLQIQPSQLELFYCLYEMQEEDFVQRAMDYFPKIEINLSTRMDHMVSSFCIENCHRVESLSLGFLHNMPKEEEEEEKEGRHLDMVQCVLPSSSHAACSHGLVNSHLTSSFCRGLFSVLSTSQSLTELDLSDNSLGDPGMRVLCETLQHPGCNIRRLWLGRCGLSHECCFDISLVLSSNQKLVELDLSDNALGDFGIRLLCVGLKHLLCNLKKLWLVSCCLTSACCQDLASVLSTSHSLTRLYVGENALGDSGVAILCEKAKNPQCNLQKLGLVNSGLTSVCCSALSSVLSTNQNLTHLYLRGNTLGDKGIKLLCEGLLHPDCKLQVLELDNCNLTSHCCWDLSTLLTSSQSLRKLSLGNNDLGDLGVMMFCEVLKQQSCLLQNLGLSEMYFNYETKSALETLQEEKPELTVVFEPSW
T2 sequence (Q12809 whole entry): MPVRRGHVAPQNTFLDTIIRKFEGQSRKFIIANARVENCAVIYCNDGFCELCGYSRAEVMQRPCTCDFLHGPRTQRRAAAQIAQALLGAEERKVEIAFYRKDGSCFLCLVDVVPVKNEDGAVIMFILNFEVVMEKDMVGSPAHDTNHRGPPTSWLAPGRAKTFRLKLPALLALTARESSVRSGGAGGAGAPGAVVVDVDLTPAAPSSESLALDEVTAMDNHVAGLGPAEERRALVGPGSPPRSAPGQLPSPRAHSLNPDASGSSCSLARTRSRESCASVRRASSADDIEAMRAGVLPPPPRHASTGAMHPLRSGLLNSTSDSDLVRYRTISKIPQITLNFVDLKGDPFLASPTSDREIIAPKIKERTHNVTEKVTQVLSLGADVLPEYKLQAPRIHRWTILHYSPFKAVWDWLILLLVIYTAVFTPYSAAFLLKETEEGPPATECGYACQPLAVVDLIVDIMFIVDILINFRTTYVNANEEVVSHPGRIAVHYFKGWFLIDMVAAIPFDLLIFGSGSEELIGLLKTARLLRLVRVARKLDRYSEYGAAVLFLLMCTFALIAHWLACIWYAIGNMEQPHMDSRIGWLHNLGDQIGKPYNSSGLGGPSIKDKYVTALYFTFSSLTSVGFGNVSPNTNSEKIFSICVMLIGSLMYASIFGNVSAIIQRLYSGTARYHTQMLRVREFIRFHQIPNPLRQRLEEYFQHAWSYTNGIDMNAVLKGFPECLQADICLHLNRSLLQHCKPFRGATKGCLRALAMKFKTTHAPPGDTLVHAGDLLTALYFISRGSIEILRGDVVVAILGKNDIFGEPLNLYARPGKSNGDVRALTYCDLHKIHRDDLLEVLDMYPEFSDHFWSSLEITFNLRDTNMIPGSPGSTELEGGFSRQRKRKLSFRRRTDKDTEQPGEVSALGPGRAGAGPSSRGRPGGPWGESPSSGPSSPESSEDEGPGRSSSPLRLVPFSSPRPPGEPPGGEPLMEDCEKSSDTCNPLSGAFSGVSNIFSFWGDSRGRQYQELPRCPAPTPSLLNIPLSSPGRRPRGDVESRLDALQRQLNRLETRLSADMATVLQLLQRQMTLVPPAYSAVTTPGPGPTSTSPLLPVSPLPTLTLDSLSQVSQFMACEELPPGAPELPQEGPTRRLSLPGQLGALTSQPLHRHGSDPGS
T3 sequence (P08183 whole entry): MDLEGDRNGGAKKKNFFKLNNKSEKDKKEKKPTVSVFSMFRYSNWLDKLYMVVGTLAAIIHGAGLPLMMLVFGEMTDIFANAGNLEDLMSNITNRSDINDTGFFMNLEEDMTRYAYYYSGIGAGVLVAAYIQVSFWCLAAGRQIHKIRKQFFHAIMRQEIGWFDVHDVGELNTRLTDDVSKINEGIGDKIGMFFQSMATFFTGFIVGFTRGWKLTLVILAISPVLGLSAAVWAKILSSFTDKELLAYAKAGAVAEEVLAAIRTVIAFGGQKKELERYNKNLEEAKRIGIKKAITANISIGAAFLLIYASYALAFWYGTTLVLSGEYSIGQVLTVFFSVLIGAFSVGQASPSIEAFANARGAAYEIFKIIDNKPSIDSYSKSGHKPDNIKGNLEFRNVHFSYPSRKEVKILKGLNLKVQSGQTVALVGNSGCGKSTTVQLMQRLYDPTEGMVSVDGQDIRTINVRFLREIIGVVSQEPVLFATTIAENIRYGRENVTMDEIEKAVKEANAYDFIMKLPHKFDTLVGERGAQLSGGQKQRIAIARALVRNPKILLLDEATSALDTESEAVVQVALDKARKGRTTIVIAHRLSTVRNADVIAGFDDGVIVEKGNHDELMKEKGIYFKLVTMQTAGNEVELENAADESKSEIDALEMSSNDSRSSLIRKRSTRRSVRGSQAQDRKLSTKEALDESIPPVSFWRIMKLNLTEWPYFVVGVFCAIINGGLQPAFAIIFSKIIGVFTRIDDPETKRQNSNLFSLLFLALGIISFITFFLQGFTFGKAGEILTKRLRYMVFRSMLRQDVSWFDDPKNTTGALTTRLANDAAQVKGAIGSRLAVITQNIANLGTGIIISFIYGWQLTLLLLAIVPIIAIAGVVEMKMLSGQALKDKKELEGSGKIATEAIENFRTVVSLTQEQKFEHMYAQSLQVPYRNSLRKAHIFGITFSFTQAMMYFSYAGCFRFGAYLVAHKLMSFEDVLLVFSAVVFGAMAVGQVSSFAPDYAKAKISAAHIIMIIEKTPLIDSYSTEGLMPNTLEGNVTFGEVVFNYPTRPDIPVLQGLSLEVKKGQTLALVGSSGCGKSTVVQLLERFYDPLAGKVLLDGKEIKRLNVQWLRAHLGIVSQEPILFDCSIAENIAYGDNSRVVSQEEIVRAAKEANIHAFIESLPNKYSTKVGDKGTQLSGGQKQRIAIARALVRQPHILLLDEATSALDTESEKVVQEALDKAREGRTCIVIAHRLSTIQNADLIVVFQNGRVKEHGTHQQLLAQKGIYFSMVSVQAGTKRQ

Q: Which results are given for `COCc1cc2c(c(O)c1-c1ccc3oc(N[C@@H]4CCCN(CCO)C4)nc3n1)CCO2` [Example 12, 5-[2-[[(3R)-1-(2-Hydroxyethyl)-3-piperidyl]amino]oxazolo[4,5-b]pyridin-5-yl]-6-(methoxymethyl)-2,3-dihydrobenzofuran-4-ol]?
A: IC50 (NLRP3 [1]): 8 nM; IC20 [2]: > 10000 nM; IC50 (NLRP3 [3]): 15 nM

Q: With `Cc1cc2c(c(O)c1-c1ccc3oc(N[C@@H]4CCCN(CCO)C4)nc3n1)CCO2` [Example 14, 5-[2-[[(3R)-1-(2-Hydroxyethyl)-3-piperidyl]amino]oxazolo[4,5-b]pyridin-5-yl]-6-methyl-2,3-dihydrobenzofuran-4-ol] as the compound, how does the IC50 (NLRP3 [1]) read?
A: 0.6 nM

Q: What about the efflux ratio (human P-gp; read-out: ER (efflux ratio)) of the same compound?
A: 4

Q: And the Papp (human P-gp; read-out: Permeability)?
A: 13.5 ×10⁻⁶ cm/s

Q: What about the IC50 (NLRP3 [3]) of the same compound?
A: 22 nM

Q: With `COCc1cc(C#N)cc(O)c1-c1cnc2oc(N[C@@H]3CCCN(CCO)C3)nc2n1` [Example 15, 3-Hydroxy-4-[2-[[(3R)-1-(2-hydroxyethyl)-3-piperidyl]amino]oxazolo[4,5-b]pyrazin-5-yl]-5-(methoxymethyl)benzonitrile;2,2,2-trifluoroacetic Acid] as the compound, how does the IC50 (NLRP3 [1]) read?
A: 34 nM

Q: And the IC20 [2]?
A: > 10000 nM

Q: What about the IC50 (NLRP3 [3]) of the same compound?
A: 33 nM

Q: Which IC50 (NLRP3 [1]) does the source give for `Cc1cc2c(c(O)c1-c1cnc3oc(N[C@@H]4CCCN(CCO)C4)nc3n1)CCC2` [Example 18, 5-[2-[[(3R)-1-(2-Hydroxyethyl)-3-piperidyl]amino]oxazolo[4,5-b]pyrazin-5-yl]-6-methyl-indan-4-ol] here?
A: 2 nM

Q: What about the IC20 [2] of the same compound?
A: 6300 nM

Q: Which results are given for `CCN1C[C@@H](O)C[C@@H](Nc2nc3nc(-c4c(C)cc5c(c4O)CCO5)cnc3o2)C1` [Example 25, (3S,5R)-1-Ethyl-5-[[5-(4-hydroxy-6-methyl-2,3-dihydrobenzofuran-5-yl)oxazolo[4,5-b]pyrazin-2-yl]amino]piperidin-3-ol]?
A: IC50 (NLRP3 [1]): 2 nM; IC50 (NLRP3 [3]): 16 nM

Q: `CCN1C[C@@H](O)C[C@@H](Nc2nc3nc(-c4c(C)cc(C#N)cc4O)cc(F)c3o2)C1` [Example 27, 4-[2-[[(3R,5S)-1-Ethyl-5-hydroxy-3-piperidyl]amino]-7-fluoro-oxazolo[4,5-b]pyridin-5-yl]-3-hydroxy-5-methyl-benzonitrile] was tested. Which IC50 (NLRP3 [1]) did it give?
A: 6 nM

Q: And the IC50 (NLRP3 [3])?
A: 95 nM

Q: Which results are given for `Cc1cc(C#N)cc(O)c1-c1ccc2oc(N[C@@H]3CCCN(CCCc4ncco4)C3)nc2n1` [Example 28, 3-Hydroxy-5-methyl-4-[2-[[(3R)-1-(3-oxazol-2-ylpropyl)-3-piperidyl]amino]oxazolo[4,5-b]pyridin-5-yl]benzonitrile]?
A: IC50 (NLRP3 [1]): 23 nM; IC50 (NLRP3 [3]): 86 nM

Q: How did the IC50 (NLRP3 [1]) turn out when `Cc1cc(C#N)cc(O)c1-c1cc(F)c2oc(N[C@@H]3CCCN(CCO)C3)nc2n1` [Example 29, 4-[7-Fluoro-2-[[(3R)-1-(2-hydroxyethyl)-3-piperidyl]amino]oxazolo[4,5-b]pyridin-5-yl]-3-hydroxy-5-methyl-benzonitrile] was run?
A: 7 nM

Q: And the IC50 (NLRP3 [3])?
A: 124 nM

Q: With `CCN1C[C@@H](O)C[C@@H](Nc2nc3nc(-c4c(C)cc(C#N)cc4O)cc(OC)c3o2)C1` [Example 30, 4-[2-[[(3R,5S)-1-Ethyl-5-hydroxy-3-piperidyl]amino]-7-methoxy-oxazolo[4,5-b]pyridin-5-yl]-3-hydroxy-5-methyl-benzonitrile] as the compound, how does the IC50 (NLRP3 [1]) read?
A: 13 nM

Q: What about the IC50 (NLRP3 [3]) of the same compound?
A: 48 nM
